Test results: patent publication US20210032253A1, “PYRAZOLO[1,5-A][1,3,5]TRIAZINE-2-AMINE DERIVATIVE, PREPARATION METHOD THEREFOR AND MEDICAL USE THEREOF” (JIANGSU HENGRUI MEDICINE CO., LTD., priority 2018, published 2021)

Key:
[1] = biological target: T1, adenosine A1 receptor (A1R) (Homo sapiens, UniProt P30542); test: Inhibition of adenosine A1 receptor cAMP signaling pathway in CHO-K1/A1R cells (HTRF cAMP dynamic 2 kit); format: cell-based; settings: Table 2; for IC50: CHO-K1/A1R cells, cAMP, 10 μM forskolin, 10 nM CPA; for IC50 ratio (A1R/A2aR): selectivity A1R over A2aR
T1 construct: expressed in transfected cells; host or cells: CHO-K1
T1 sequence (P30542 1-326): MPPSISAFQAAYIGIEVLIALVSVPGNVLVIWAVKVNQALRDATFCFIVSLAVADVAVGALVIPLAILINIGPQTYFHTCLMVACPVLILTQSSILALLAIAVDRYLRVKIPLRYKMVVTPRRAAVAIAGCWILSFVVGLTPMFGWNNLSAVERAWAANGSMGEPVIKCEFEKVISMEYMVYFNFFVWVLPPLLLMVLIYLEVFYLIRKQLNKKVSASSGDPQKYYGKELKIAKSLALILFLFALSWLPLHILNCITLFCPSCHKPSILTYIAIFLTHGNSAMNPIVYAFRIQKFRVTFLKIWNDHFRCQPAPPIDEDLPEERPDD
Method in brief: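 CHO-K1 cells stably expressing A1R, in HBSS with 20 mM HEPES, 0.1% BSA, rolipram and adenosine deaminase, were pre-incubated 30 min at RT with compound (0.1–100000 nM final). Cells were then stimulated 30 min with 10 μM forskolin plus 10 nM CPA. Intracellular cAMP was read by HTRF after 1 h detection.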

[2] = biological target: T2, adenosine A2a receptor (A2aR) (Homo sapiens, UniProt P29274); test: Inhibition of adenosine A2a receptor cAMP signaling pathway in CHO-K1/A2aR cells (HTRF cAMP dynamic 2 kit); format: cell-based; settings: Table 1, 20 nM ethylcarbazole
T2 construct: expressed in transfected cells; host or cells: CHO-K1
T2 sequence (P29274 whole entry): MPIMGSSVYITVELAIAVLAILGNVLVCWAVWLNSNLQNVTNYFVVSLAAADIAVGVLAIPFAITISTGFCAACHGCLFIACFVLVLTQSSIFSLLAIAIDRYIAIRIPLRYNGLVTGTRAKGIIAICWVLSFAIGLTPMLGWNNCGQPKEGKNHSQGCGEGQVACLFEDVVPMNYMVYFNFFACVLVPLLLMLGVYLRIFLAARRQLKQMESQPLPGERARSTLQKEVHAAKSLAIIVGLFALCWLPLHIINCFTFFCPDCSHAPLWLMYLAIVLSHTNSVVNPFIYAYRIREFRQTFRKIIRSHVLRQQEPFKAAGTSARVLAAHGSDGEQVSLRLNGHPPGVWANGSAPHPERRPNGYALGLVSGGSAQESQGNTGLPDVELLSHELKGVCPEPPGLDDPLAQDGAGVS
Method in brief: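 CHO-K1/A2aR cells (10^6 cells/mL) in HBSS with 20 mM HEPES, 0.1% BSA, rolipram and adenosine deaminase, exposed to compound (0.001024–10000 nM) for 30 min at RT. Then agonist "ethylcarbazole" at 20 nM final, 30 min RT. cAMP read by HTRF after 1 h in lysis buffer.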

IC50 [1] [nM] | IC50 ratio (A1R/A2aR) [1] | IC50 [2] [nM] | SMILES
1120 | >10^3 | 0.33 | Cc1ccc(-c2nc(N)nc3c(Cc4cccc(CO[C@H]5CCOC5)n4)cnn23)o1 [Example 1, (S)-4-(5-Methylfuran-2-yl)-8-((6-(((tetrahydrofuran-3-yl)oxy)methyl)pyridin-2-yl)methyl)pyrazolo[1,5-a][1,3,5]triazin-2-amine]
2540 | >10^3 | 0.87 | Cc1ccc(-c2nc(N)nc3c(Nc4cccc(CO[C@H]5CCOC5)n4)cnn23)o1 [Example 18, (S)-4-(5-Methylfuran-2-yl)-N^8-(6-(((tetrahydrofuran-3-yl)oxy)methyl)pyridin-2-yl)pyrazolo[1,5-a][1,3,5]triazine-2,8-diamine]
2860 | >10^3 | 0.36 | Cc1ccc(-c2nc(N)nc3c(Oc4cccc(CO[C@H]5CCOC5)n4)cnn23)o1 [Example 19, (S)-4-(5-Methylfuran-2-yl)-8-((6-(((tetrahydrofuran-3-yl)oxy)methyl)pyridin-2-yl)oxy)pyrazolo[1,5-a][1,3,5]triazin-2-amine]
